Key:
[1] = target: LET-23 (Caenorhabditis elegans, UniProt P24348); test: continuous enzyme-coupled kinase assay on lipid vesicles, percent inhibition; assay type: biochemical
[2] = target: PLK-1 (Caenorhabditis elegans, UniProt P34331); test: in vitro radiometric kinase assay ([γ-32P]ATP, GST-LMN-1 head substrate); assay type: biochemical
PLK-1, sequence (P34331 whole entry): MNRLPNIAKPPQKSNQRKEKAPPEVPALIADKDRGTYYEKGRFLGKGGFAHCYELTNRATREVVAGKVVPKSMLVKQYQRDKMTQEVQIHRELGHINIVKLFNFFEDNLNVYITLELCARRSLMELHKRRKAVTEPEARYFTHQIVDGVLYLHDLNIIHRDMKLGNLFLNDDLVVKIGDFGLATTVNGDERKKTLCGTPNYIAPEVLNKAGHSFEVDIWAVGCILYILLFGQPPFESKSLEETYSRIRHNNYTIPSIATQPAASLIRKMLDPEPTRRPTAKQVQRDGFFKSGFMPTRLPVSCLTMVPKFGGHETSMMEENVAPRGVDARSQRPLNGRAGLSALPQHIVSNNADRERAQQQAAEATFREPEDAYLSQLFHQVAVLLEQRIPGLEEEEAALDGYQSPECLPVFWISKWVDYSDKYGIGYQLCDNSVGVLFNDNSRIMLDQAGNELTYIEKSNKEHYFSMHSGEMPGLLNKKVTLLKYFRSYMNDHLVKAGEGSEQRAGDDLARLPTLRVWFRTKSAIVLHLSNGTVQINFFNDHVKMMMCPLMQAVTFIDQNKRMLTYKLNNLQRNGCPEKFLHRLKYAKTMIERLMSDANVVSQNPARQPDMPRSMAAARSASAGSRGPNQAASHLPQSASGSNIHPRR

LET-23, sequence (P24348 866-1191): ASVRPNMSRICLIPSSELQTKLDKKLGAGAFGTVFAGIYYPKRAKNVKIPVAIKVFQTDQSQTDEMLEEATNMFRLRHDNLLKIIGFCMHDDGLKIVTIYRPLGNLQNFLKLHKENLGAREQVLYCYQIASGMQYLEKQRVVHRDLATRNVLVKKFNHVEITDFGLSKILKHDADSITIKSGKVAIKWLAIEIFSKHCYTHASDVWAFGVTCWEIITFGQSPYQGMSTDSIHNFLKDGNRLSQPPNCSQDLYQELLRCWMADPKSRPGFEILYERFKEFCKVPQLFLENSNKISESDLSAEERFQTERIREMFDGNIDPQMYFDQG

## CS(=O)(=O)CCNCc1ccc(-c2ccc3ncnc(Nc4ccc(OCc5cccc(F)c5)c(C(F)(F)F)c4)c3c2)o1 [GW576484X]
[1]
  continuous enzyme-coupled kinase assay on lipid vesicles, percent inhibition: The ATOP and 4AQ scaffold compounds tested were able to inhibit LET-23 kinase activity

## C[C@@H](Oc1cc(-n2cnc3cc(-c4ccncc4)ccc32)sc1C(N)=O)c1ccccc1Cl [GSK479719A]
[2]
  IC50: 39 nM

## [O-][S+]1CCN(Cc2ccc(-c3ccc4ncnc(Nc5ccc(OCc6ccccc6)c(Cl)c5)c4c3)o2)CC1 [GW583373A]
[1]
  continuous enzyme-coupled kinase assay on lipid vesicles, percent inhibition: The ATOP and 4AQ scaffold compounds tested were able to inhibit LET-23 kinase activity

## C[C@@H](Oc1cc(-n2cnc3ccc(-c4ccncc4)cc32)sc1C(N)=O)c1ccccc1Cl [GSK483724A]
[2]
  IC50: 91 nM

From publication PMC8080662 (Scientific Reports, 2021)
